Laboratory results: ChEMBL document CHEMBL3352111, “Cytotoxic activity of butane type of 1,7-seco-2,7'-cyclolignanes and apoptosis induction by Caspase 9 and 3” (Bioorg Med Chem Lett, 2014)
Active and inactive are the calls of the source. No cut-off for these calls is given here.

How the values were obtained:
[1] = Cytotoxicity against human HL60 cells after 48 hrs by WST8 assay; assay type: functional, cell-based; conditions: HL-60, 48 h
[2] = test system: HeLa; test: Cytotoxicity against human HeLa cells after 48 hrs by WST8 assay; assay type: functional, cell-based
[3] = test system: HeLa; test: Cytotoxicity against human HeLa cells assessed as inhibition of cell growth at 100 uM after 48 hrs by WST8 assay; assay type: functional; conditions: read-out: GI
[4] = Cytotoxicity against human HL60 cells assessed as inhibition of cell growth at 100 uM after 48 hrs by WST8 assay; assay type: functional; conditions: HL-60, 48 h, read-out: GI
[5] = test system: HL-60; test: Induction of apoptosis in human HL60 cells assessed as late apoptosis level at 0.2 uM after 24 hrs by Annexin V-PE and 7-AAD staining based flow cytometry (reference value: 3.3%); assay type: functional
[6] = test system: HL-60; test: Induction of apoptosis in human HL60 cells assessed as increase in caspase-3 level at 8 uM after 24 hrs by Western blotting method; assay type: functional, cell-based
[7] = test system: HL-60; test: Induction of apoptosis in human HL60 cells assessed as late apoptosis level at 8 uM after 24 hrs by Annexin V-PE and 7-AAD staining based flow cytometry (reference value: 3.2%); assay type: functional
[8] = test system: HL-60; test: Induction of apoptosis in human HL60 cells assessed as increase in DNA fragmentation at 25 uM after 4 hrs by ethidium bromide staining and gel electrophoresis based DNA ladder analysis; assay type: functional, cell-based
[9] = test system: HL-60; test: Induction of apoptosis in human HL60 cells assessed as increase in caspase-9 level at 8 uM after 12 hrs by Western blotting method; assay type: functional, cell-based
[10] = test system: HL-60; test: Induction of apoptosis in human HL60 cells assessed as reduction in pro-caspase-9 level at 8 uM after 24 hrs by Western blotting method; assay type: functional, cell-based
[11] = test system: HL-60; test: Induction of apoptosis in human HL60 cells assessed as early apoptosis level at 8 uM after 24 hrs by Annexin V-PE and 7-AAD staining based flow cytometry (reference value: 3.3%); assay type: functional

| Compound | IC50 [1] | IC50 [2] | inhibition of growth at 100 µM [3] | inhibition of growth at 100 µM [4] | also measured |
| --- | --- | --- | --- | --- | --- |
| CCCCC[C@H](C(C)C)C(c1ccc(O)c(OC)c1)c1ccc(O)c(OC)c1 | 9.6 µM | 9.2 µM |  |  |  |
| COc1cc(C(c2ccc(O)c(OC)c2)[C@@H](C)[C@H](C)CO)ccc1O | > 100 µM | > 100 µM | 7% | 0% |  |
| COc1cc(C(c2ccc(O)c(OC)c2)[C@H](C)[C@H](C)CF)ccc1O | 56 µM | 75 µM |  |  |  |
| CC[C@H](C(C)C)C(c1ccc(O)c(OC)c1)c1ccc(O)c(OC)c1 | 16 µM | 9.7 µM |  |  |  |
| COc1cc(C(c2ccc(O)c(OC)c2)[C@H](CC(C)C)C(C)C)ccc1O | 9.6 µM | 8.2 µM |  |  |  |
| COc1cc(C(c2ccc(O)c(OC)c2)[C@@H](C)C(C)C)ccc1O | 20 µM | 19 µM |  |  |  |
| COC[C@H](C)[C@H](C)C(c1ccc(O)c(OC)c1)c1ccc(O)c(OC)c1 | 82 µM | 72 µM |  |  |  |
| COc1ccc(C(c2ccc(OC)c(OC)c2)[C@@H](C)[C@H](C)CO)cc1OC | > 100 µM | > 100 µM | 0% | 0% |  |
| COc1ccc(C(c2ccc(OC)c(OC)c2)[C@H](C)[C@@H](C)CO)cc1OC | 47 µM | 67 µM |  |  |  |
| COc1cc(C(c2ccc(O)c(OC)c2)[C@@H](C)[C@H](C)CF)ccc1O | 32 µM | 37 µM |  |  |  |
| COc1cc(C(c2ccc(O)c(OC)c2)[C@H](C)C(C)C)ccc1O | 17 µM | 16 µM |  |  |  |
| COC[C@H](C)[C@@H](C)C(c1ccc(O)c(OC)c1)c1ccc(O)c(OC)c1 | 68 µM | 77 µM |  |  |  |
| COc1cc(C(c2ccc(O)c(OC)c2)[C@@H](CF)C(C)C)ccc1O | 39 µM | 41 µM |  |  |  |
| COC[C@@H](C(C)C)C(c1ccc(O)c(OC)c1)c1ccc(O)c(OC)c1 | 54 µM | 69 µM |  |  |  |
| COC[C@@H](C)[C@@H](C)C(c1ccc(O)c(OC)c1)c1ccc(O)c(OC)c1 | 85 µM | > 100 µM | 34% |  |  |
| COc1cc(C(c2ccc(O)c(OC)c2)[C@@H](C)[C@@H](C)CF)ccc1O | 38 µM | 42 µM |  |  |  |
| COc1cc(C(c2ccc(O)c(OC)c2)[C@H](CO)C(C)C)ccc1O | > 100 µM | > 100 µM | 3% | 10% |  |
| COc1cc(C(c2ccc(O)c(OC)c2)[C@@H](C)[C@@H](C)CO)ccc1O | > 100 µM | > 100 µM | 8% | 3% |  |
| COc1cc(C(c2ccc(O)c(OC)c2)[C@H](C)[C@@H](C)CO)ccc1O | > 100 µM | > 100 µM | 7% | 7% |  |
| COc1cc(C(c2ccc(O)c(OC)c2)[C@H](C)[C@@H](C)CF)ccc1O | 45 µM | 34 µM |  |  |  |
| COc1cc(C(c2ccc(O)c(OC)c2)[C@H](CF)C(C)C)ccc1O | 19 µM | 19 µM |  |  |  |
| COc1ccc(C(c2ccc(OC)c(OC)c2)[C@@H](C)[C@@H](C)CO)cc1OC | > 100 µM | > 100 µM | 55% | 42% |  |
| COc1cc(C(c2ccc(O)c(OC)c2)[C@@H](CO)C(C)C)ccc1O | > 100 µM | > 100 µM | 2% | 18% |  |
| COc1ccc(C(c2ccc(OC)c(OC)c2)[C@H](C)[C@H](C)CO)cc1OC | > 100 µM | > 100 µM | 13% | 28% |  |
| COC[C@@H](C)[C@H](C)C(c1ccc(O)c(OC)c1)c1ccc(O)c(OC)c1 | 73 µM | 58 µM |  |  |  |
| CN[C@@H]1C[C@H]2O[C@@](C)([C@@H]1OC)n1c3ccccc3c3c4c(c5c6ccccc6n2c5c31)C(=O)NC4 [STAUROSPORINE] |  |  |  |  | Activity [5]: 17.4% |
| COC[C@H](C(C)C)C(c1ccc(O)c(OC)c1)c1ccc(O)c(OC)c1 | 72 µM | 76 µM |  |  |  |
| COc1cc(C(c2ccc(O)c(OC)c2)[C@H](C)[C@H](C)CO)ccc1O | > 100 µM | > 100 µM | 0% | 23% |  |
| CCCCCCCC[C@H](C(C)C)C(c1ccc(O)c(OC)c1)c1ccc(O)c(OC)c1 | 3.7 µM | 3.1 µM |  |  | Activity [6]: Active; Activity [7]: 33.1%; Activity [8]: Active; Activity [9]: Active; Activity [10]: Active; Activity [11]: 13.5% |
